This note sets out measurements from patent publication US20220125841A1, “SODIUM F[…] A REVERSAL AGENT FOR AN ANTI-F[…] T CELLS AND FLUORESCEIN-PHOSPHOLIPID-ETHERS OR PROFLUORESCEIN-PHOSPHOLIPID-ETHERS” (Seattle Children's Hospital (dba Seattle Children'a …, priority 2019, published 2022).

In series [1] the test system is antiFL(FITC-E2) CAR T cells. Description: Chromium release assay and cytokine release assay, antiFL(FITC-E2) CAR T cells with FL-PLE-loaded K562 target cells. As to conditions: 50 μM NaFL; K562 target cells with 5 μM FL-PLE. Type of series: cell-based. How it is done:
FIG. 1B depicts a chromium release assay for effector T cells (CD8+ Mock or CD8+ antiFL(FITC-E2) CAR(Lg) T cells) mixed at various ratios with target cells (effector:target, E:T). The target cells are K562 control, K562 OKT3+, and K562 with 5 μM FL-PLE. One CD8+ antiFL(FITC-E2) population was exposed to 50 μM NaFL.
FIG. 1C depicts a cytokine release assay for helper cells (CD4+ Mock or CD4+ antiFL(FITC-E2) CAR(Lg) T cells) and effector T cells (CD8+ Mock or CD8+ antiFL(FITC-E2) CAR(Lg) T cells) mixed with target cells. The target cells are K562 control, K562 OKT3+, and K562 with 5 μM FL-PLE. One CD4+ and CD8+ antiFL(FITC-E2) population was exposed to 50 μM NaFL.
K562 (leukemia) cells were incubated with FL-PLE overnight. Cell integration of FL-PLE was analyzed by flow cytometry (FIG. 1A). There was a clear shift from the control K562 parental with the K562 parental incubated with 5 μM FL-PLE. This slight shift corresponded to a difference in the amount of FL exposed on the surface of the cell for CAR T cell recognition. These cells were used in a chromium release assay (FIG. 1B) and a cytokine release assay (FIG. 1C) to test whether the activation of CD8+ and CD4+ antiFL(FITC-E2) CAR T cells through FL-PLE integrated into K562 cells could be stopped in the presence of sodium fluorescein (NaFL). […]

The subject of series [2] is antiFL(FITC-E2) CAR T cells. Description: MDA-MB-231 xenograft mouse model: monitoring of cytokine release syndrome (CRS) and cytotoxicity. Type of series: in vivo, mice. The source says:
FIG. 2B depicts levels of cytokine release syndrome (CRS) and cytotoxicity in an MDA-MB-231 adenocarcinoma tumor xenograft mouse model over time. FIG. 2B (lower panel) is an enlargement of an area of FIG. 2B (upper panel).
After an adenocarcinoma (MDA-MB-231) tumor was established in 2 groups of mice by subcutaneous injection (2 tumors per mouse in opposite flanks), the mice received an intravenous injection of antiFL(FITC-E2) CART cells on day 6. The control group (no drug) only received the antiFL(FITC-E2) CAR T cells and the tumor progressed as normal. […] The mice were monitored for cytokine release syndrome (CRS) and cytotoxicity on a scale ranging from 1 (healthy) to 5 (dead) (FIG. 2B). On day 17, the intratumoral dose of FL-PLE was increased to 2 μg per tumor. On day 18, the mice had levels of CRS/toxicity between 3 and 4 at which point they received a dose of 0.56 mg of NaFL via an intravenous injection. […] After this, all doses of FL-PLE were administered at 1 μg per tumor.

The subject of series [3] is antiFL(Mut2) CAR T cells. Description: Cytokine release assay with dose titration of NaFL (Example 3). Type of series: cell-based. The method, then: FIG. 3D depicts a cytokine release assay measuring IL-2 using the effector cells generated in FIG. 3A-B, target cells tested in FIG. 3C, and a dose titration of NaFL (0, 1, 5, or 10 μM).
FIG. 3E depicts a cytokine release assay measuring IFN-γ using the effector cells generated in FIG. 3A-B, target cells tested in FIG. 3C, and a dose titration of NaFL (0, 1, 5, or 10 μM).
FIG. 3F depicts a cytokine release assay measuring TNF-α using the effector cells generated in FIG. 3A-B, target cells tested in FIG. 3C, and a dose titration of NaFL (0, 1, 5, or 10 μM).
CD4+ and CD8+ T cells from peripheral blood mononuclear cell preparations from two donors were lentivirally transduced to express long CAR cassettes comprising the antiFL(Mut2) CAR. The CAR cassette also contains the gene for a double mutant dihydrofolate reductase that allows for methotrexate positive selection to enrich for transduced CAR-expressing cells as well as the gene for the truncated CD19 (CD19t) surface marker that denotes CAR positivity. The selected cells are then subjected to a standard rapid expansion protocol using irradiated TM-LCL and PBMC feeder cells. After 14 days of expansion, cells were stained with anti-CD4, anti-CD8, and anti-CD19 antibodies as well as a live-dead stain to characterize surface phenotypes by flow cytometry. Flow plots for the CD4 and CD8 populations (FIG. 3A) and CAR positivity (FIG. 3B) are shown for mock and antiFL(Mut2) CAR T cells for both donors. These are the effector cells to be used in subsequent experiments.
A cytokine release assay was set up to examine how a dose titration of NaFL (0, 1, 5, and 10 μM) affects the activation of antiFL CAR T cells. The CAR T cells are the antiFL(Mut2) CAR T cells generated in this example. Target cells were incubated with FL-PLE/NaFL for 24 hours or overnight. The media supernatant from target cell cultures were harvested and constituent cytokines were measured (e.g. with a Bio-Plex Human Cytokine Screening Panel). The cytokines IL-2 (FIG. 3D), IFN-γ (FIG. 3E), and TNF-α (FIG. 3F) were measured.

Series [4] concerns antiFL(Mut2) CAR T cells. Description: In vivo intravenous use of NaFL to reverse cytokine toxicity by antiFL CAR T cells (Example 4). Further details: species or system mice. How it is done: Group A—control (5 mice): MDA-MB-231 tumor+antiFL(Mut2) CAR T cells.
Group B—FL-PLE without NaFL (5 mice): MDA-MB-231 tumor+antiFL(Mut2) CAR T cells+1 mg IV FL-PLE.
Group C—FL-PLE and NaFL (5 mice): MDA-MB-231 tumor+antiFL(Mut2) CAR T cells+1 mg IV FL-PLE+0.5 mg IV NaFL (as needed).
Group D—No tumor control (3 mice): antiFL(Mut2) CAR T cells+1 mg IV FL-PLE+0.5 mg IV NaFL (as needed).
Mice receiving FL-PLE (Groups B, C, and D) were administered FL-PLE IV first. AntiFL(Mut2) CAR T cells were subsequently administered in all mice 2 days following FL-PLE administration. […] Reduction of cytokine toxicity symptoms in mice of Groups C and D was observed within 15 minutes after administration of NaFL.

Consider `O=C([O-])c1ccccc1-c1c2ccc(=O)cc-2oc2cc([O-])ccc12.[Na+].[Na+]` [NaFL, sodium fluorescein], for which, in series [1], the “Effect of NaFL on recognition and activation of antiFL(FITC-E2) CAR T cells” value is “able to stop the recognition and activation”. For the same compound, in series [2] (0.56 mg NaFL intravenous injection on day 18), the “Time for cytotoxicity level to return to roughly baseline levels after NaFL” value is at most 12 h. In addition, in series [2] (0.56 mg NaFL intravenous injection on day 18 at CRS/toxicity level 3 to 4), the “Cytotoxicity level after NaFL” value is listed as “Within minutes, the cytotoxicity level had dropped”. Also, the “Amount of activation of antiFL(Mut2) CAR T cells (IL-2, IFN-γ, TNF-α) versus amount of NaFL” value in series [3] (NaFL 0, 1, 5, and 10 μM, all three cytokines, both donor T cells) is recorded as “decreased by the amount of NaFL present in the solution in a linear fashion”. Further, in series [3] (NaFL 0, 1, 5, or 10 μM, FIG. 3D), the “Effect of NaFL on IL-2 release by antiFL(Mut2) CAR T cells” value is “dose dependent”. The “Effect of NaFL on IFN-γ release by antiFL(Mut2) CAR T cells” value in series [3] (NaFL 0, 1, 5, or 10 μM, FIG. 3E) is on record as “dose dependent”. For the same compound, the “Effect of NaFL on TNF-α release by antiFL(Mut2) CAR T cells” value in series [3] (NaFL 0, 1, 5, or 10 μM, FIG. 3F) was “dose dependent”. Moreover, in series [4] (0.5 mg IV NaFL, mice), the Tolerability in vivo entry is “well tolerated”. The “Time to reduction of cytokine toxicity symptoms after administration of NaFL” value in series [4] (Groups C and D, 0.5 mg IV NaFL) is at most 15 min. Also, in series [4] (Groups C and D, 2 days following first administration of NaFL, optionally with additional IV injections), the “Cytokine levels after NaFL” value is recorded as “comparable to baseline”.
